Assay [1] deals with type III collagen generation in primary human dermal fibroblasts. The assay can be described thus: Type III collagen generation in primary human dermal fibroblasts, ELISA of culture supernatant. It counts as cell-based. The note with it: for Relative expression level of type III collagen: N=3, vs blank control 100.00%. On the procedure:
A sample solution was prepared by dissolving ergothioneine solid powder in a basic culture medium, and the concentration was adjusted to 0.001 wt %.
When the in vitro cultured fibroblasts reached 80-90% confluence, they were digested with trypsin and inoculated into 96-well plates. After 48 hours of monolayer culture in a 96-well plate, cells were treated with the ergothioneine sample prepared in step (1) (N=3), with a treatment group comprising 100 ng/mL IGF-1 was set as the positive control. After 48 hours, the cell culture supernatant was taken for ELISA assay of type III collagen, and the type III collagen content of the measured sample group was statistically compared with that of the blank control group to evaluate the effect of ergothioneine on the generation of type III collagen.
All results were presented as Mean±SD, and differences in measured data were compared using an unpaired t-test. P-value<0.05 is considered statistically significant.
In general terms: ELISA stands for enzyme-linked immunosorbent assay.

For assay [2], the system named is type III collagen generation in human fibroblast (HFF). As to the kind of experiment: Type III collagen content by human collagen III ELISA in human fibroblast (HFF). The assay is classed as cell-based. The note with it: 0.2 wt % ergothioneine, 72 hours. As to the method:
Human fibroblast (HFF) in logarithmic growth phase were collected, discarding the culture medium, washing them once with PBS, adding 0.25 wt % trypsin, incubating in a cell culture incubator for 1 minute, and then terminating digestion of the culture medium. The culture medium was centrifuged at 1000 rpm for 3 minutes, and the cells were resuspended in complete DMEM medium and counted. Human fibroblast (HFF) were inoculated into 12-well plates at a density of 3×10^5 cells/ml, with 1 ml/well. After incubation in an incubator at 37° C. and 5% CO2 for 24 hours, the culture medium was removed and the cells were washed with PBS.
The cells washed in step 1 were divided into two groups, namely a blank control group and an ergothioneine group, with 3 replicates in each group. Among them, the blank control group: 1 ml of serum-free culture medium; the ergothioneine group: 1 ml of serum-free culture medium containing 0.2 wt % ergothioneine.
After thoroughly mixing, cells in the above groups were placed in an incubator and cultured for another 72 hours.
Phase contrast microscopy was used to observe cell growth, morphology, and integrity of the cell monolayer, and changes in cell morphology and growth were recorded. The content of type III collagen was determined by using the human collagen III ELISA kit.
Type III collagen promotion rate was calculated as: […]

Take `C[N+](C)(C)[C@@H](Cc1c[nH]c(=S)[nH]1)C(=O)[O-]` [Ergothioneine, ergothioneine]: the “effect on generation of type III collagen (in words)” value in assay [1] (ergothioneine 0.001%, 48 hours, P<0.05) is on record as “significantly promotes the generation of type III collagen”; in assay [2] (compared with blank control) it was “can significantly promote the generation of type III collagen”. Besides, in assay [1] (ergothioneine 0.001 wt %, 48 hours, SD 0.07, P 0.0360), the “Relative expression level of type III collagen” value is 117.8%. The activity at 0.2 wt % in assay [2] (Homo sapiens, Fibroblast, serum-free medium, 3 replicates, vs blank control 100.0 ± 12.3, ** P < 0.01, read-out: Relative expression level of type III collagen (%)) was 148 ± 20.1%. The activation at 0.2 wt % in assay [2] (Homo sapiens, Fibroblast, serum-free medium, 3 replicates, vs blank control, read-out: Type III collagen promotion rate (%)) is 48.3 ± 20.1%.
“IGF-1: 100 ng/mL IGF-1 was set as the positive control”: in assay [1] (100 ng/mL IGF-1, 48 hours, P<0.05), the “effect on synthesis of type III collagen in fibroblasts (in words)” value is given as “significantly promotes the synthesis of type III collagen in fibroblasts”. The “Relative expression level of type III collagen” value in assay [1] (positive control 100 ng/mL IGF-1, 48 hours, SD 0.05, P 0.0103) is 129.3%.

The values are drawn from patent US20260294767A1, “USE OF ERGOTHIONEINE IN PROMOTING COLLAGEN GENERATION” (BLOOMAGE BIOTECHNOLOGY CORPORATION LIMITED, priority 2022, published 2026).
